In PubChem BioAssay (NCI):
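Results reflect a 48-hour exposure of cells in 96-well plates to compound at five concentrations. The concentration for 50% growth inhibition is given as GI50. TGI marks complete inhibition of growth.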

Columns and labels:
Assay in all cases: NCI anticancer screen, dose series, 48 h
SF-539 CNS = test system: SF-539 CNS
UO-31 renal = test system: UO-31 renal
DU-145 prostate = test system: DU-145 prostate
SNB-75 CNS = test system: SNB-75 CNS
ACHN renal = test system: ACHN renal
OVCAR-5 ovarian = test system: OVCAR-5 ovarian
CCRF-CEM leukemia = test system: CCRF-CEM leukemia
NCI-H522 lung = test system: NCI-H522 lung
KM12 colon = test system: KM12 colon
PC-3 prostate = test system: PC-3 prostate
U251 CNS = test system: U251 CNS
EKVX NSCLC = test system: EKVX NSCLC
HOP-62 NSCLC = test system: HOP-62 NSCLC
SF-295 CNS = test system: SF-295 CNS
HCT-15 colon = test system: HCT-15 colon
UACC-62 melanoma = test system: UACC-62 melanoma
A498 renal = test system: A498 renal
COLO 205 colon = test system: COLO 205 colon
T-47D breast = test system: T-47D breast
SW-620 colon = test system: SW-620 colon
K-562 leukemia = test system: K-562 leukemia
HS 578T breast = test system: HS 578T breast
A549 NSCLC = test system: A549 NSCLC
LOX IMVI melanoma = test system: LOX IMVI melanoma
NCI/ADR-RES ovarian = test system: NCI/ADR-RES ovarian
SN12C renal = test system: SN12C renal
MCF7 breast = test system: MCF7 breast
SK-MEL-2 melanoma = test system: SK-MEL-2 melanoma
RPMI-8226 leukemia = test system: RPMI-8226 leukemia
HCC-2998 colon = test system: HCC-2998 colon
SK-MEL-28 melanoma = test system: SK-MEL-28 melanoma
SNB-19 CNS = test system: SNB-19 CNS
MDA-MB-435 = test system: MDA-MB-435
HL-60(TB) leukemia = test system: HL-60(TB) leukemia
RXF 393 renal = test system: RXF 393 renal
OVCAR-3 ovarian = test system: OVCAR-3 ovarian
MALME-3M melanoma = test system: MALME-3M melanoma
CAKI-1 renal = test system: CAKI-1 renal
MOLT-4 leukemia = test system: MOLT-4 leukemia
HCT-116 colon = test system: HCT-116 colon
M14 melanoma = test system: M14 melanoma
MDA-MB-231 breast = test system: MDA-MB-231 breast
UACC-257 melanoma = test system: UACC-257 melanoma
HT29 colon = test system: HT29 colon
SF-268 CNS = test system: SF-268 CNS
OVCAR-4 ovarian = test system: OVCAR-4 ovarian
TK-10 renal = test system: TK-10 renal
SK-OV-3 ovarian = test system: SK-OV-3 ovarian
IGROV1 ovarian = test system: IGROV1 ovarian
NCI-H460 lung = test system: NCI-H460 lung
786-0 renal = test system: 786-0 renal
HOP-92 NSCLC = test system: HOP-92 NSCLC
SR leukemia = test system: SR leukemia
NCI-H226 lung = test system: NCI-H226 lung

Structure (SMILES): NC(=O)c1cc(-c2ccc3ncnc(N4CCc5cc(F)c(Cl)cc54)c3c2)cnc1N
- GI50 (SF-539 CNS): 1.49 µM
- TGI (SF-539 CNS): 3.56 µM
- GI50 (UO-31 renal): 0.311 µM
- TGI (UO-31 renal): 10.6 µM
- GI50 (DU-145 prostate): 1.79 µM
- TGI (DU-145 prostate): 27.4 µM
- GI50 (SNB-75 CNS): 0.524 µM
- TGI (SNB-75 CNS): 5.8 µM
- GI50 (ACHN renal): 0.801 µM
- TGI (ACHN renal): 17 µM
- GI50 (OVCAR-5 ovarian): 1.82 µM
- TGI (OVCAR-5 ovarian): 47.9 µM
- GI50 (CCRF-CEM leukemia): 2.95 µM
- TGI (CCRF-CEM leukemia): 34.8 µM
- GI50 (NCI-H522 lung): 1.55 µM
- TGI (NCI-H522 lung): 4.72 µM
- GI50 (KM12 colon): 2.33 µM
- TGI (KM12 colon): 10.9 µM
- GI50 (PC-3 prostate): 0.976 µM
- TGI (PC-3 prostate): 5.27 µM
- GI50 (U251 CNS): 2.44 µM
- TGI (U251 CNS): 18.8 µM
- GI50 (EKVX NSCLC): 0.806 µM
- TGI (EKVX NSCLC): 15.3 µM
- GI50 (HOP-62 NSCLC): 1.37 µM
- TGI (HOP-62 NSCLC): 7.22 µM
- GI50 (SF-295 CNS): 1.47 µM
- TGI (SF-295 CNS): 4.26 µM
- GI50 (HCT-15 colon): 2.02 µM
- TGI (HCT-15 colon): > 100 µM
- GI50 (UACC-62 melanoma): 1.62 µM
- TGI (UACC-62 melanoma): 18.3 µM
- GI50 (A498 renal): 0.336 µM
- TGI (A498 renal): 2.46 µM
- GI50 (COLO 205 colon): 2.7 µM
- TGI (COLO 205 colon): 21.4 µM
- GI50 (T-47D breast): 0.273 µM
- TGI (T-47D breast): 2.36 µM
- GI50 (SW-620 colon): 2.41 µM
- TGI (SW-620 colon): 19.4 µM
- GI50 (K-562 leukemia): 3.35 µM
- TGI (K-562 leukemia): > 100 µM
- GI50 (HS 578T breast): 0.839 µM
- TGI (HS 578T breast): 7.65 µM
- GI50 (A549 NSCLC): 1.05 µM
- TGI (A549 NSCLC): 13.4 µM
- GI50 (LOX IMVI melanoma): 1.69 µM
- TGI (LOX IMVI melanoma): 12.3 µM
- GI50 (NCI/ADR-RES ovarian): 3.22 µM
- TGI (NCI/ADR-RES ovarian): > 100 µM
- GI50 (SN12C renal): 1.03 µM
- TGI (SN12C renal): 25 µM
- GI50 (MCF7 breast): 0.317 µM
- TGI (MCF7 breast): 2.15 µM
- GI50 (SK-MEL-2 melanoma): 1.54 µM
- TGI (SK-MEL-2 melanoma): 4.02 µM
- GI50 (RPMI-8226 leukemia): 1.39 µM
- TGI (RPMI-8226 leukemia): 11.3 µM
- GI50 (HCC-2998 colon): 1.68 µM
- TGI (HCC-2998 colon): 7.09 µM
- GI50 (SK-MEL-28 melanoma): 2.67 µM
- TGI (SK-MEL-28 melanoma): 28.5 µM
- GI50 (SNB-19 CNS): 1.82 µM
- TGI (SNB-19 CNS): > 100 µM
- GI50 (MDA-MB-435): 2.3 µM
- TGI (MDA-MB-435): > 100 µM
- GI50 (HL-60(TB) leukemia): 0.573 µM
- TGI (HL-60(TB) leukemia): 6.18 µM
- GI50 (RXF 393 renal): 0.656 µM
- TGI (RXF 393 renal): 2.59 µM
- GI50 (OVCAR-3 ovarian): 1.67 µM
- TGI (OVCAR-3 ovarian): 10 µM
- GI50 (MALME-3M melanoma): 1.51 µM
- TGI (MALME-3M melanoma): 15.2 µM
- GI50 (CAKI-1 renal): 0.529 µM
- TGI (CAKI-1 renal): 17 µM
- GI50 (MOLT-4 leukemia): 1.25 µM
- TGI (MOLT-4 leukemia): 6.23 µM
- GI50 (HCT-116 colon): 1.22 µM
- TGI (HCT-116 colon): 2.81 µM
- GI50 (M14 melanoma): 2.84 µM
- TGI (M14 melanoma): 41.4 µM
- GI50 (MDA-MB-231 breast): 2.02 µM
- TGI (MDA-MB-231 breast): 16.2 µM
- GI50 (UACC-257 melanoma): 2.83 µM
- TGI (UACC-257 melanoma): > 100 µM
- GI50 (HT29 colon): 1.14 µM
- TGI (HT29 colon): 9.76 µM
- GI50 (SF-268 CNS): 1.88 µM
- TGI (SF-268 CNS): 49.8 µM
- GI50 (OVCAR-4 ovarian): 1.28 µM
- TGI (OVCAR-4 ovarian): 2.95 µM
- GI50 (TK-10 renal): 0.519 µM
- TGI (TK-10 renal): 27.9 µM
- GI50 (SK-OV-3 ovarian): 1.09 µM
- TGI (SK-OV-3 ovarian): 4.18 µM
- GI50 (IGROV1 ovarian): 0.279 µM
- TGI (IGROV1 ovarian): 1.62 µM
- GI50 (NCI-H460 lung): 1.3 µM
- TGI (NCI-H460 lung): 3.96 µM
- GI50 (786-0 renal): 1.19 µM
- TGI (786-0 renal): 10.4 µM
- GI50 (HOP-92 NSCLC): 0.231 µM
- TGI (HOP-92 NSCLC): 2.63 µM
- GI50 (SR leukemia): 1.87 µM
- TGI (SR leukemia): 16.2 µM
- GI50 (NCI-H226 lung): 3.04 µM
- TGI (NCI-H226 lung): 33.1 µM
